Assay results: ChEMBL document CHEMBL5352410, “Discovery of novel selenium-containing azole derivatives as antifungal agents by exploiting the hydrophobic cleft of CYP51” (Eur J Med Chem, 2022)
In brackets after ≈: the same amount, converted by molar mass.

Tests used:
[1] = test system: Candida albicans; assay: Antifungal activity against Candida albicans sc5314 by CLSI based broth microdilution method; type: functional
[2] = test system: Candida albicans; assay: Antifungal activity against Candida albicans by CLSI based broth microdilution method; type: functional
[3] = test system: Nakaseomyces glabratus; assay: Antifungal activity against Candida glabrata by CLSI based broth microdilution method; type: functional
[4] = test system: Candida parapsilosis; assay: Antifungal activity against Candida parapsilosis by CLSI based broth microdilution method; type: functional; conditions: Lodderomyces parapsilosis
[5] = test system: Pichia kudriavzevii; assay: Antifungal activity against Pichia kudriavzevii by CLSI based broth microdilution method; type: functional
[6] = test system: [Candida] zeylanoides; assay: Antifungal activity against Candida zeylanoides by CLSI based broth microdilution method; type: functional; conditions: Dujonia zeylanoides
[7] = test system: Cryptococcus neoformans; assay: Antifungal activity against Cryptococcus neoformans by CLSI based broth microdilution method; type: functional
[8] = test system: Aspergillus fumigatus; assay: Antifungal activity against Aspergillus fumigatus by CLSI based broth microdilution method; type: functional
[9] = test system: Candida albicans; assay: Antifungal activity against FCZ-resistant Candida albicans CaR by CLSI based broth microdilution method; type: functional
[10] = test system: Candida albicans; assay: Antifungal activity against FCZ-resistant Candida albicans 17# by CLSI based broth microdilution method; type: functional
[11] = test system: Candida albicans; assay: Antifungal activity against FCZ-resistant Candida albicans 632 by CLSI based broth microdilution method; type: functional
[12] = test system: Candida albicans; assay: Antifungal activity against FCZ-resistant Candida albicans 901 by CLSI based broth microdilution method; type: functional
[13] = test system: Candida albicans; assay: Antifungal activity against FCZ-resistant Candida albicans 904 by CLSI based broth microdilution method; type: functional
[14] = test system: Candida albicans; assay: Fungicidal activity against Candida albicans; type: functional
[15] = test system: Candida albicans; assay: Fungicidal activity against Candida albicans sc5314; type: functional
[16] = test system: Candida albicans; assay: Fungicidal activity against FCZ-resistant Candida albicans CaR; type: functional
[17] = test system: Candida albicans; assay: Fungicidal activity against FCZ-resistant Candida albicans 17#; type: functional
[18] = test system: Candida albicans; assay: Fungicidal activity against FCZ-resistant Candida albicans 632; type: functional
[19] = test system: Candida albicans; assay: Fungicidal activity against FCZ-resistant Candida albicans 901; type: functional
[20] = test system: Candida albicans; assay: Fungicidal activity against FCZ-resistant Candida albicans 904; type: functional
[21] = test system: Candida albicans; assay: Antibiofilm activity against Candida albicans SC5314 assessed as sessile minimum inhibitory concentration measured after 1.5 hrs by XTT assay; type: functional
[22] = test system: Candida albicans; assay: Antibiofilm activity against Candida albicans SC5314 assessed as sessile minimum inhibitory concentration measured after 3 hrs by XTT assay; type: functional
[23] = test system: Candida albicans; assay: Antibiofilm activity against Candida albicans SC5314 assessed as sessile minimum inhibitory concentration measured after 6 hrs by XTT assay; type: functional
[24] = test system: Candida albicans; assay: Antibiofilm activity against Candida albicans SC5314 assessed as sessile minimum inhibitory concentration measured after 24 hrs by XTT assay; type: functional
[25] = test system: Candida albicans; assay: Antibiofilm activity against Candida albicans CPCC400616 assessed as sessile minimum inhibitory concentration measured after 1.5 hrs by XTT assay; type: functional
[26] = test system: Candida albicans; assay: Antibiofilm activity against Candida albicans CPCC400616 assessed as sessile minimum inhibitory concentration measured after 3 hrs by XTT assay; type: functional
[27] = test system: Candida albicans; assay: Antibiofilm activity against Candida albicans CPCC400616 assessed as sessile minimum inhibitory concentration measured after 6 hrs by XTT assay; type: functional
[28] = test system: Candida albicans; assay: Antibiofilm activity against Candida albicans CPCC400616 assessed as sessile minimum inhibitory concentration measured after 24 hrs by XTT assay; type: functional
[29] = Cytotoxicity against human HL-60 cells by MTT assay; type: toxicity, cell-based
[30] = Cytotoxicity against human MDA-MB-231 cells by MTT assay; type: toxicity, cell-based
[31] = Cytotoxicity against human PC-3 cells by MTT assay; type: toxicity, cell-based
[32] = Metabolic stability in mouse liver microsome assessed as half life; type: ADME; conditions: liver microsomes
[33] = Metabolic stability in mouse liver microsome assessed as clearance; type: ADME; conditions: liver microsomes, read-out: CLH

Cc1ccc(C(Cn2ccnc2)[Se]C(Cn2ccnc2)c2ccc(C)cc2)cc1 (stereo unspecified)
MIC [1]: 4 µg/mL (≈ 8.9 µM) | MIC [2]: 4 µg/mL (≈ 8.9 µM) | MIC [3]: 16 µg/mL (≈ 35.6 µM) | MIC [4]: 4 µg/mL (≈ 8.9 µM) | MIC [5]: 16 µg/mL (≈ 35.6 µM) | MIC [6]: 2 µg/mL (≈ 4.45 µM) | MIC [7]: 32 µg/mL (≈ 71.2 µM) | MIC [8]: > 64 µg/mL | MIC [9]: 2 µg/mL (≈ 4.45 µM) | MIC [10]: 0.5 µg/mL (≈ 1.11 µM) | MIC [11]: 4 µg/mL (≈ 8.9 µM) | MIC [12]: 4 µg/mL (≈ 8.9 µM) | MIC [13]: 4 µg/mL (≈ 8.9 µM) | MFC [14]: 64 µg/mL (≈ 142 µM) | MFC [15]: 16 µg/mL (≈ 35.6 µM) | MFC [16]: > 64 µg/mL | MFC [17]: > 64 µg/mL | MFC [18]: 8 µg/mL (≈ 17.8 µM) | MFC [19]: 8 µg/mL (≈ 17.8 µM) | MFC [20]: 8 µg/mL (≈ 17.8 µM) | MIC50 [21]: 1 µg/mL (≈ 2.22 µM) | MIC80 [21]: 4 µg/mL (≈ 8.9 µM) | MIC50 [22]: 1 µg/mL (≈ 2.22 µM) | MIC80 [22]: 4 µg/mL (≈ 8.9 µM) | MIC50 [23]: 1 µg/mL (≈ 2.22 µM) | MIC80 [23]: 4 µg/mL (≈ 8.9 µM) | MIC50 [24]: 2 µg/mL (≈ 4.45 µM) | MIC80 [24]: 4 µg/mL (≈ 8.9 µM) | MIC50 [25]: 1 µg/mL (≈ 2.22 µM) | MIC80 [25]: 4 µg/mL (≈ 8.9 µM) | MIC50 [26]: 2 µg/mL (≈ 4.45 µM) | MIC80 [26]: 8 µg/mL (≈ 17.8 µM) | MIC50 [27]: 2 µg/mL (≈ 4.45 µM) | MIC80 [27]: 8 µg/mL (≈ 17.8 µM) | MIC50 [28]: 4 µg/mL (≈ 8.9 µM) | MIC80 [28]: 16 µg/mL (≈ 35.6 µM) | IC50 [29]: 8.13 µM | IC50 [30]: 4.21 µM | IC50 [31]: 1110 nM

Clc1ccc(C(Cn2ccnc2)[Se][Se]C(Cn2ccnc2)c2ccc(Cl)cc2)cc1 (stereo unspecified)
MIC [9]: 2 µg/mL (≈ 3.51 µM) | MIC [10]: 8 µg/mL (≈ 14.1 µM) | MIC [11]: 4 µg/mL (≈ 7.03 µM) | MIC [12]: 1 µg/mL (≈ 1.76 µM) | MIC [13]: 8 µg/mL (≈ 14.1 µM) | MFC [14]: 64 µg/mL (≈ 112 µM) | MFC [15]: 32 µg/mL (≈ 56.2 µM) | MFC [16]: > 64 µg/mL | MFC [17]: > 64 µg/mL | MFC [18]: 8 µg/mL (≈ 14.1 µM) | MFC [19]: 4 µg/mL (≈ 7.03 µM) | MFC [20]: 8 µg/mL (≈ 14.1 µM) | MIC50 [21]: 0.5 µg/mL (≈ 0.878 µM) | MIC80 [21]: 4 µg/mL (≈ 7.03 µM) | MIC50 [22]: 0.5 µg/mL (≈ 0.878 µM) | MIC80 [22]: 4 µg/mL (≈ 7.03 µM) | MIC50 [23]: 0.5 µg/mL (≈ 0.878 µM) | MIC80 [23]: 4 µg/mL (≈ 7.03 µM) | MIC50 [24]: 0.5 µg/mL (≈ 0.878 µM) | MIC80 [24]: 16 µg/mL (≈ 28.1 µM) | MIC50 [25]: 0.5 µg/mL (≈ 0.878 µM) | MIC80 [25]: 2 µg/mL (≈ 3.51 µM) | MIC50 [26]: 0.5 µg/mL (≈ 0.878 µM) | MIC80 [26]: 4 µg/mL (≈ 7.03 µM) | MIC50 [27]: 2 µg/mL (≈ 3.51 µM) | MIC80 [27]: 32 µg/mL (≈ 56.2 µM) | MIC50 [28]: 32 µg/mL (≈ 56.2 µM) | MIC80 [28]: 128 µg/mL (≈ 225 µM) | IC50 [29]: 12.5 µM | IC50 [30]: 5.5 µM | IC50 [31]: 2910 nM | half-life [32]: 24.4 min | CLint scaled [33]: 25.4 mL/min/kg

Cc1ccc(C(Cn2ccnc2)[Se][Se]C(Cn2ccnc2)c2ccc(C)cc2)cc1 (stereo unspecified)
MIC [9]: 2 µg/mL (≈ 3.78 µM) | MIC [10]: 32 µg/mL (≈ 60.6 µM) | MIC [11]: 4 µg/mL (≈ 7.57 µM) | MIC [12]: 4 µg/mL (≈ 7.57 µM) | MIC [13]: 4 µg/mL (≈ 7.57 µM) | MFC [14]: 64 µg/mL (≈ 121 µM) | MFC [15]: 8 µg/mL (≈ 15.1 µM) | MFC [16]: > 64 µg/mL | MFC [17]: > 64 µg/mL | MFC [18]: 8 µg/mL (≈ 15.1 µM) | MFC [19]: 8 µg/mL (≈ 15.1 µM) | MFC [20]: 8 µg/mL (≈ 15.1 µM) | MIC50 [21]: 1 µg/mL (≈ 1.89 µM) | MIC80 [21]: 4 µg/mL (≈ 7.57 µM) | MIC50 [22]: 2 µg/mL (≈ 3.78 µM) | MIC80 [22]: 4 µg/mL (≈ 7.57 µM) | MIC50 [23]: 2 µg/mL (≈ 3.78 µM) | MIC80 [23]: 8 µg/mL (≈ 15.1 µM) | MIC50 [24]: 2 µg/mL (≈ 3.78 µM) | MIC80 [24]: 4 µg/mL (≈ 7.57 µM) | MIC50 [25]: 1 µg/mL (≈ 1.89 µM) | MIC80 [25]: 8 µg/mL (≈ 15.1 µM) | MIC50 [26]: 2 µg/mL (≈ 3.78 µM) | MIC80 [26]: 8 µg/mL (≈ 15.1 µM) | MIC50 [27]: 1 µg/mL (≈ 1.89 µM) | MIC80 [27]: 32 µg/mL (≈ 60.6 µM) | MIC50 [28]: 4 µg/mL (≈ 7.57 µM) | MIC80 [28]: 128 µg/mL (≈ 242 µM) | IC50 [29]: 14.7 µM | IC50 [30]: 5.04 µM | IC50 [31]: 7430 nM | half-life [32]: 21.2 min | CLint scaled [33]: 68.9 mL/min/kg

Fc1ccc(C(Cn2ccnc2)[Se]C(Cn2ccnc2)c2ccc(F)cc2F)c(F)c1 (stereo unspecified)
MIC [1]: 2 µg/mL (≈ 4.05 µM) | MIC [2]: 4 µg/mL (≈ 8.11 µM) | MIC [3]: 64 µg/mL (≈ 130 µM) | MIC [4]: 8 µg/mL (≈ 16.2 µM) | MIC [5]: 32 µg/mL (≈ 64.9 µM) | MIC [6]: 2 µg/mL (≈ 4.05 µM) | MIC [7]: 16 µg/mL (≈ 32.4 µM) | MIC [8]: > 64 µg/mL | MIC [9]: 2 µg/mL (≈ 4.05 µM) | MIC [10]: 1 µg/mL (≈ 2.03 µM) | MIC [11]: 4 µg/mL (≈ 8.11 µM) | MIC [12]: 4 µg/mL (≈ 8.11 µM) | MIC [13]: 8 µg/mL (≈ 16.2 µM) | MFC [14]: 32 µg/mL (≈ 64.9 µM) | MFC [15]: 8 µg/mL (≈ 16.2 µM) | MFC [16]: > 64 µg/mL | MFC [17]: > 64 µg/mL | MFC [18]: 8 µg/mL (≈ 16.2 µM) | MFC [19]: 8 µg/mL (≈ 16.2 µM) | MFC [20]: 8 µg/mL (≈ 16.2 µM) | MIC50 [21]: 1 µg/mL (≈ 2.03 µM) | MIC80 [21]: 4 µg/mL (≈ 8.11 µM) | MIC50 [22]: 1 µg/mL (≈ 2.03 µM) | MIC80 [22]: 4 µg/mL (≈ 8.11 µM) | MIC50 [23]: 4 µg/mL (≈ 8.11 µM) | MIC80 [23]: 16 µg/mL (≈ 32.4 µM) | MIC50 [24]: 1 µg/mL (≈ 2.03 µM) | MIC80 [24]: 4 µg/mL (≈ 8.11 µM) | MIC50 [25]: 0.25 µg/mL (≈ 0.507 µM) | MIC80 [25]: 2 µg/mL (≈ 4.05 µM) | MIC50 [26]: 1 µg/mL (≈ 2.03 µM) | MIC80 [26]: 8 µg/mL (≈ 16.2 µM) | MIC50 [27]: 2 µg/mL (≈ 4.05 µM) | MIC80 [27]: 16 µg/mL (≈ 32.4 µM) | MIC50 [28]: 4 µg/mL (≈ 8.11 µM) | MIC80 [28]: 64 µg/mL (≈ 130 µM) | IC50 [29]: 4.61 µM | IC50 [30]: 8.26 µM | IC50 [31]: 1450 nM | half-life [32]: 9.8 min | CLint scaled [33]: 558 mL/min/kg
